These are literature values, as cited in patent US4101650A, “Pepstatin floating minicapsules” (Zaidan Hojin Biseibutsu Kagaku Kenkyu Kai, priority 1977, dated 1978).

Where a SMILES comes first, the peptide text is derived from it. [ ]: non-standard residue; d: D form. The star is where a group is joined. Sta = CC(C)C[C@H](N)[C@@H](O)CC(=O)O; Isovaleryl = CC(C)CC(=O)*

The subject of series [1] is pepsin.
For series [2], the target named is cathepsin D (Homo sapiens, UniProt P07339).
In series [3] the target is T1, renin (Homo sapiens, UniProt P00797).
T1 sequence (P00797 67-406): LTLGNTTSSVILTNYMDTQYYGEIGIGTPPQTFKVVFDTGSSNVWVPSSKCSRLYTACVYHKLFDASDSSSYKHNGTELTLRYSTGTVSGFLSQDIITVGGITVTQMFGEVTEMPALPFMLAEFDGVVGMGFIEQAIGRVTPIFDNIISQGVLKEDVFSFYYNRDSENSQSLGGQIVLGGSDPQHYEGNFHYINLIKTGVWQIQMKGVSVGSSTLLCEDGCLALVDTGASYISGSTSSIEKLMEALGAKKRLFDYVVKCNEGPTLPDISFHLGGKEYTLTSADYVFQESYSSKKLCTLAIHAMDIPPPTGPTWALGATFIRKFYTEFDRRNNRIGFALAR

cathepsin D, sequence (P07339 65-412, species assumed): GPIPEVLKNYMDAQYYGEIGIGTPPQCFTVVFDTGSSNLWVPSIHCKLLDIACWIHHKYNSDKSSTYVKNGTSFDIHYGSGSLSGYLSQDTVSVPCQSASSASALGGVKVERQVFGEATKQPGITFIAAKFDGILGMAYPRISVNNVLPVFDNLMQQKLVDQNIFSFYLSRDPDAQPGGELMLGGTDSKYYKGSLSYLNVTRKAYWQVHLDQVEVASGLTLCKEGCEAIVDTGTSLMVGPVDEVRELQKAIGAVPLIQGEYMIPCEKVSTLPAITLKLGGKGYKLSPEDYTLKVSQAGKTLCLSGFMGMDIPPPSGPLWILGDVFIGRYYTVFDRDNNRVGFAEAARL

Regarding `CC(C)CC(=O)N[C@H](C(=O)N[C@H](C(=O)N[C@@H](CC(C)C)[C@@H](O)CC(=O)N[C@@H](C)C(=O)N[C@@H](CC(C)C)[C@@H](O)CC(=O)O)C(C)C)C(C)C` [Pepstatin, RCO-L-Val-L-Val-AHMHA-L-Ala-AHMHA] (Isovaleryl-VV[Sta]A[Sta]-OH), in series [1], the inhibition of pepsin result was “very strongly”. The “inhibition of cathepsin D” value in series [2] is on record as “very strongly”. The inhibition of renin entry in series [3] was “relative strong inhibiton”.
